ChEMBL document CHEMBL1158013, “Absolute structures of new briarane diterpenoids from junceella fragilis” (J Nat Prod, 1999)
The source made the active and inactive calls.

Tests used:
Format in all cases: functional, cell-based
[1] = system: A549; experiment: Cytotoxicity against human A549 cells
[2] = system: P388; experiment: Cytotoxicity against mouse P388 cells
[3] = system: SK-MEL-28; experiment: Cytotoxicity against human SK MEL28 cells
[4] = system: HT-29; experiment: Cytotoxicity against human HT-29 cells

Measured: Activity

C=C1CC[C@H](OC(C)=O)[C@]2(C)[C@@H](OC(C)=O)C[C@@H](O)/C(C)=C\[C@@H]3OC(=O)[C@H](C)[C@]3(O)[C@@H](OC(C)=O)[C@@H]12
inactive: all assays above

CC(=O)O[C@H]1CC/C(C)=C\[C@@H]2OC(=O)[C@H](C)[C@@]2(O)[C@@H](OC(C)=O)[C@H]2[C@]3(CC[C@H](OC(C)=O)[C@]12C)CO3
inactive: all assays above

C=C1CC[C@H](OC(C)=O)[C@@]2(C)[C@H]1[C@@H](OC(C)=O)[C@@]13O[C@](O)(C[C@H]2OC(C)=O)C(=C)C[C@@H]1OC(=O)[C@@H]3C
inactive: all assays above

C=C1CC[C@H](OC(C)=O)[C@]2(C)[C@@H](OC(C)=O)C[C@@H](OC(C)=O)/C(C)=C\[C@@H]3OC(=O)[C@H](C)[C@]3(O)[C@@H](OC(C)=O)[C@@H]12
inactive: all assays above

C=C1[C@H]2C[C@@H](OC(C)=O)[C@@]3(C)[C@@H](OC(C)=O)CC[C@]4(CO4)[C@@H]3[C@@H](OC(C)=O)[C@]3(O2)[C@@H](C)C(=O)O[C@H]3[C@H]1Cl
inactive: all assays above

CC(=O)O[C@H]1CC[C@]2(CO2)[C@@H]2[C@H](OC(C)=O)[C@@]3(O)[C@H](/C=C(/C)[C@H](OC(C)=O)C[C@H](OC(C)=O)[C@@]12C)OC(=O)[C@@H]3C
inactive: all assays above

CC(=O)O[C@H]1CC[C@]2(CO2)[C@@H]2[C@H](OC(C)=O)[C@@]3(O)[C@H](/C=C(/C)[C@H](O)C[C@H](OC(C)=O)[C@@]12C)OC(=O)[C@@H]3C
inactive: all assays above

C=C1[C@H](Cl)[C@@H]2OC(=O)[C@H](C)[C@]23O[C@@H]1[C@H](OC(C)=O)[C@H](OC(C)=O)[C@@]1(C)[C@@H](OC(C)=O)CC[C@]2(CO2)[C@@H]1[C@@H]3OC(C)=O
inactive: all assays above
